Laboratory results published in US20260108447A1, “RESIDENT-SKIN-FLORA-IMPROVING AGENT AND EXTERNAL-USE COMPOSITION FOR SKIN” (NIHON SHOKUHIN KAKO CO., LTD., priority 2022, published 2026).

Columns and labels:
Assay in all cases: Change in bacteria count (bacterial turbidity OD660) when the sugar is added to the culture medium
Assay type in all cases: cell-based
[1] = system: Staphylococcus epidermidis (JCM20345); conditions: 24 hours
Description: (§1) An investigation was conducted in regard to a change in bacteria count when the α-gluco-oligosaccharide or the β-gluco-oligosaccharide prepared as described above was added to a culture medium and culturing was carried out in culturing of the various bacteria indicated in table 3 as resident skin bacteria under respectively suitable culture conditions.
(§2) Specifically, the various bacteria were cultured overnight using respectively suitable culture media to prepare preculture solutions, and the α-gluco-oligosaccharide or the β-gluco-oligosaccharide prepared as described above was added to 3 mL of fresh culture media so as to reach a final concentration of 0.5 (w/v) %, whereupon 0.03 ml of the preculture liquids was mixed thereinto and cultured for 24 hours, and the bacterial turbidity (OD660) after culturing was measured. Additionally, glucose was added as a sugar to a culture medium and similar tests were performed to arrive at a comparative control. The results were expressed as relative values (percentage relative to non-sugar-added group), where 100% indicated the bacterial turbidity when sterilized ultrapure water was added instead of any sugar.
Specifically, the effect for promoting proliferation of S. epidermidis was evaluated in the same manner as in test example 1, except that sophorose, laminaribiose, or gentiobiose prepared at high purity as described above was used as the sugar to be added to the culture medium, and the amount of the sugar added to the culture medium was set to 0.3 (w/v) % or 0.5 (w/v) % in terms of the final concentration.
The effect for promoting proliferation of S. epidermidis was evaluated in the same manner as in test example 2, except that sophorose prepared at high purity as described above was used as the β-gluco-oligosaccharide composed of disaccharides, and the amount of the sophorose added to the culture medium was set to 0.1 (w/v) % or 1.0 (w/v) % in terms of the final concentration.

[2] = system: Micrococcus luteus (JCM1464); conditions: 24 hours; for proliferation of M. luteus, relative value (percentage relative to non-sugar-added group): test example 5, final concentration 0.5 (w/v) %, OD660, FIG. 5
Description: as §1, §2
(§3) The effect for promoting proliferation of S. hominis, S. aureus, C. acnes, C. xerosis, or M. luteus was evaluated in the same manner as in test example 1, except that sophorose prepared at high purity as described above was used as the β-gluco-oligosaccharide composed of disaccharides, and the amount of the sophorose added to the culture medium was set to 0.1 (w/v) %, 0.5 (w/v) %, or 1.0 (w/v) % in terms of final concentration.
(§4) The effect for promoting proliferation of S. hominis, S. aureus, C. acnes, C. xerosis, or M. luteus was evaluated in the same manner as in test example 1, except that laminaribiose and gentiobiose prepared at high purity as described above, as well as commercially available cellobiose (Nacalai Tesque, Inc.), were used as the β-gluco-oligosaccharide composed of disaccharides, and the amount of the β-gluco-oligosaccharide added to the culture medium was set to 0.5 (w/v) % in terms of final concentration.

[3] = system: Staphylococcus hominis (JCM31912); conditions: 24 hours; for effect for promoting proliferation: test example 5, FIG. 5, sentence names no bacterium, taken as S. hominis; for proliferation of S. hominis, relative value (percentage relative to non-sugar-added group): test example 4, OD660, FIG. 4
Description: as §1, §2, §3, §4

[4] = system: Corynebacterium xerosis (JCM1971); conditions: test example 4; at any of 0.1, 0.5, 1.0 (w/v) %, 24 hours; FIG. 4
Description: as §1, §2, §3, §4

[5] = system: Cutibacterium acnes (JCM6425); conditions: test example 4; at any of 0.1, 0.5, 1.0 (w/v) %, 24 hours; FIG. 4
Description: as §1, §2, §3, §4

[6] = system: Staphylococcus aureus (ATCC6538); conditions: 24 hours
Description: as §1, §2, §3, §4

[7] = test example 2, high-purity sugar 0.3 (w/v) % or 0.5 (w/v) % final concentration, FIG. 2
[8] = final concentration 0.5 (w/v) %
[9] = test example 4, at any of 0.1, 0.5, 1.0 (w/v) %, FIG. 4

Compound	effect for promoting proliferation of S. epidermidis [1, 7]	proliferation of M. luteus, relative value (percentage relative to non-sugar-added group) [2] [%]	effect for promoting proliferation [3, 8]	effect for promoting proliferation of S. epidermidis ([1]; test example 3, final concentration 0.1 (w/v) %, FIG. 3)	effect for promoting proliferation of S. epidermidis, compared with 0.5 (w/v) % of test example 2 ([1]; test example 3, final concentration 1.0 (w/v) %, FIG. 3)	effect for promoting proliferation of C. xerosis relative to the control [4]	effect for promoting proliferation of C. acnes relative to the control [5]	effect for promoting proliferation of M. luteus relative to the control [2, 9]	effect for promoting proliferation of S. aureus relative to the control [6, 9]	proliferation of S. hominis, relative value (percentage relative to non-sugar-added group) [3, 8] [%]	proliferation of S. hominis, relative value (percentage relative to non-sugar-added group) ([3]; final concentration 1.0 (w/v) %) [%]	proliferation of S. aureus, relative value (percentage relative to non-sugar-added group) ([6]; test example 5, final concentration 0.5 (w/v) %, OD660, FIG. 5) [%]
gentiobiose	did not exhibit an effect for promoting proliferation	121.9	not confirmed to yield an effect for promoting proliferation									
O=C[C@H](O[C@@H]1O[C@H](CO)[C@@H](O)[C@H](O)[C@H]1O)[C@@H](O)[C@H](O)[C@H](O)CO [sophorose, 2-O-β-D-glucopyranosyl-D-glucose]	prominent effect for promoting proliferation			exhibit the effect for promoting proliferation	no great difference was observed	no effect for promoting proliferation	no effect for promoting proliferation	no effect for promoting proliferation	no effect for promoting proliferation	118.0	118.8	
O=C[C@H](O)[C@@H](O)[C@H](O[C@@H]1O[C@H](CO)[C@@H](O)[C@H](O)[C@H]1O)[C@H](O)CO [cellobiose]		111.7	not confirmed to yield an effect for promoting proliferation									
OC[C@H]1O[C@@H](O[C@H]2[C@H](O)[C@@H](CO)OC(O)[C@@H]2O)[C@H](O)[C@@H](O)[C@@H]1O (some centres unmarked) [laminaribiose, reference compound]	did not exhibit an effect for promoting proliferation		not confirmed to yield an effect for promoting proliferation									108.5
